According to PMC5218480 (PLoS ONE, 2017):

Test system: MV-4-11 cells
Assay: Gene expression microarray analysis (Affymetrix PrimeView) and GSEA
Assay type: cell-based, human
Parameters: RFU PODN (11730768_x_at) / Fold change /veh PODN (11730768_x_at) / RFU LINC00158 (11744669_a_at) / Fold change /veh LINC00158 (11744669_a_at) / RFU DUSP10 (11751237_a_at) / Fold change /veh DUSP10 (11751237_a_at) / RFU ID3 (11757404_x_at) / Fold change /veh ID3 (11757404_x_at) / RFU PLEKHG5 (11737974_s_at) / Fold change /veh PLEKHG5 (11737974_s_at) / RFU LRRC4B (11730491_at) / Fold change /veh LRRC4B (11730491_at) / RFU GIMAP4 (11747438_a_at) / Fold change /veh GIMAP4 (11747438_a_at) / RFU KRT8 (11758183_x_at) / Fold change /veh KRT8 (11758183_x_at) / RFU CNN1 (11734310_a_at) / Fold change /veh CNN1 (11734310_a_at) / RFU VPS37D (11726825_at) / Fold change /veh VPS37D (11726825_at) / RFU C10orf10 (11716522_x_at) / Fold change /veh C10orf10 (11716522_x_at) / RFU KIR2DL2 /// KIR2DL4 /// KIR2DL5A /// KIR2DL5B /// KIR2DS1 /// KIR2DS2 /// KIR2DS3 /// KIR2DS4 /// KIR3DL3 /// KIR3DL3 /// KIR3DS1 (11738374_at) / Fold change /veh KIR2DL2 /// KIR2DL4 /// KIR2DL5A /// KIR2DL5B /// KIR2DS1 /// KIR2DS2 /// KIR2DS3 /// KIR2DS4 /// KIR3DL3 /// KIR3DL3 /// KIR3DS1 (11738374_at) / RFU C1QL1 (11718748_at) / Fold change /veh C1QL1 (11718748_at) / RFU TMPRSS4 (11747572_a_at) / Fold change /veh TMPRSS4 (11747572_a_at) / RFU HAMP (11756126_x_at) / Fold change /veh HAMP (11756126_x_at) / RFU RNFT2 (11725882_a_at) / Fold change /veh RNFT2 (11725882_a_at) / RFU NR4A2 (11747474_a_at) / Fold change /veh NR4A2 (11747474_a_at) / RFU ABCC12 (11746883_a_at) / Fold change /veh ABCC12 (11746883_a_at) / RFU TMEM136 (11760407_x_at) / Fold change /veh TMEM136 (11760407_x_at) / RFU CLDN22 /// WWC2 (11732394_at) / Fold change /veh CLDN22 /// WWC2 (11732394_at) / RFU HLA-DPB1 (11760878_x_at) / Fold change /veh HLA-DPB1 (11760878_x_at) / RFU SPINT1 (11716480_a_at) / Fold change /veh SPINT1 (11716480_a_at) / RFU GAP43 (11754022_s_at) / Fold change /veh GAP43 (11754022_s_at) / RFU A4GNT (11735810_at) / Fold change /veh A4GNT (11735810_at) / RFU PRB3 (11715151_x_at) / Fold change /veh PRB3 (11715151_x_at) / RFU TUBB4B (11761932_at) / Fold change /veh TUBB4B (11761932_at) / RFU CAPN14 (11732068_a_at) / Fold change /veh CAPN14 (11732068_a_at) / RFU TMCC2 (11721928_a_at) / Fold change /veh TMCC2 (11721928_a_at) / RFU IRGQ (11745062_a_at) / Fold change /veh IRGQ (11745062_a_at) / RFU FAM174B (11720279_a_at) / Fold change /veh FAM174B (11720279_a_at) / RFU TMPRSS4 (11748680_a_at) / Fold change /veh TMPRSS4 (11748680_a_at) / RFU FAM212B (11763350_a_at) / Fold change /veh FAM212B (11763350_a_at) / RFU PLEKHG5 (11743358_a_at) / Fold change /veh PLEKHG5 (11743358_a_at) / RFU ZSCAN30 (11745921_a_at) / Fold change /veh ZSCAN30 (11745921_a_at) / RFU CMKLR1 (11741424_a_at) / Fold change /veh CMKLR1 (11741424_a_at) / RFU LOC101060620 /// MAPK8IP1 (11723275_at) / Fold change /veh LOC101060620 /// MAPK8IP1 (11723275_at) / RFU SPTSSB (11747773_x_at) / Fold change /veh SPTSSB (11747773_x_at) / RFU PRSS12 (11739890_at) / Fold change /veh PRSS12 (11739890_at) / RFU BIN1 (11741810_x_at) / Fold change /veh BIN1 (11741810_x_at) / RFU WNT11 (11732464_a_at) / Fold change /veh WNT11 (11732464_a_at) / RFU C10orf10 (11716521_a_at) / Fold change /veh C10orf10 (11716521_a_at) / RFU C5orf56 (11738089_at) / Fold change /veh C5orf56 (11738089_at) / RFU CYB561 (11721691_x_at) / Fold change /veh CYB561 (11721691_x_at) / RFU ANKRD19P (11752326_a_at) / Fold change /veh ANKRD19P (11752326_a_at) / RFU OR2T12 /// OR2T33 /// OR2T8 (11738714_s_at) / Fold change /veh OR2T12 /// OR2T33 /// OR2T8 (11738714_s_at) / RFU VCAN (11748164_a_at) / Fold change /veh VCAN (11748164_a_at) / RFU JSRP1 (11732532_at) / Fold change /veh JSRP1 (11732532_at) / RFU KRTAP10-11 (11738290_x_at) / Fold change /veh KRTAP10-11 (11738290_x_at) / RFU MYO3A (11730013_a_at) / Fold change /veh MYO3A (11730013_a_at) / RFU EBF3 (11725865_a_at) / Fold change /veh EBF3 (11725865_a_at) / RFU CAMK2N1 (11719241_x_at) / Fold change /veh CAMK2N1 (11719241_x_at) / RFU C5orf56 (11738088_a_at) / Fold change /veh C5orf56 (11738088_a_at) / RFU OLFML3 (11715873_a_at) / Fold change /veh OLFML3 (11715873_a_at) / RFU LOC100653217 /// NTM (11731650_a_at) / Fold change /veh LOC100653217 /// NTM (11731650_a_at) / RFU MAPK11 (11762145_a_at) / Fold change /veh MAPK11 (11762145_a_at) / RFU FIZ1 (11724087_x_at) / Fold change /veh FIZ1 (11724087_x_at) / RFU OASL (11726364_x_at) / Fold change /veh OASL (11726364_x_at) / RFU SOX15 (11748057_x_at) / Fold change /veh SOX15 (11748057_x_at) / RFU CD79A (11719716_a_at) / Fold change /veh CD79A (11719716_a_at) / RFU HIST1H1D (11736915_at) / Fold change /veh HIST1H1D (11736915_at) / RFU CASKIN2 (11723855_a_at) / Fold change /veh CASKIN2 (11723855_a_at) / RFU LOC730098 (11760151_x_at) / Fold change /veh LOC730098 (11760151_x_at) / RFU OR4N2 (11742367_at) / Fold change /veh OR4N2 (11742367_at) / RFU PRRT2 (11749266_a_at) / Fold change /veh PRRT2 (11749266_a_at) / RFU SNX32 (11753110_a_at) / Fold change /veh SNX32 (11753110_a_at) / RFU CDHR5 (11726645_a_at) / Fold change /veh CDHR5 (11726645_a_at) / RFU RCAN1 (11760418_a_at) / Fold change /veh RCAN1 (11760418_a_at) / RFU FAM167A (11723789_a_at) / Fold change /veh FAM167A (11723789_a_at) / RFU FAM26E (11764081_at) / Fold change /veh FAM26E (11764081_at) / RFU ISYNA1 (11749810_s_at) / Fold change /veh ISYNA1 (11749810_s_at) / RFU ACY1 (11761880_at) / Fold change /veh ACY1 (11761880_at) / RFU 11764098_at / Fold change /veh 11764098_at / RFU SAMD14 (11745864_x_at) / Fold change /veh SAMD14 (11745864_x_at) / RFU NPB (11741838_a_at) / Fold change /veh NPB (11741838_a_at) / RFU TMPRSS6 (11731388_a_at) / Fold change /veh TMPRSS6 (11731388_a_at) / RFU KRTAP10-2 (11738614_at) / Fold change /veh KRTAP10-2 (11738614_at) / RFU ARHGAP8 /// PRR5-ARHGAP8 (11727945_x_at) / Fold change /veh ARHGAP8 /// PRR5-ARHGAP8 (11727945_x_at) / RFU KRTAP5-7 /// NADSYN1 (11734609_at) / Fold change /veh KRTAP5-7 /// NADSYN1 (11734609_at) / RFU RASL12 (11751679_a_at) / Fold change /veh RASL12 (11751679_a_at) / RFU CDKN2B (11736163_a_at) / Fold change /veh CDKN2B (11736163_a_at) / RFU PRF1 (11729649_at) / Fold change /veh PRF1 (11729649_at) / RFU, ZNF638 /// ZNF638-IT1 / Fold change vs veh, ZNF638 /// ZNF638-IT1 / RFU, PANK3 / Fold change vs veh, PANK3 / RFU, SH3YL1 / Fold change vs veh, SH3YL1 / RFU, ZEB2 / Fold change vs veh, ZEB2 / RFU, NRIP1 / Fold change vs veh, NRIP1 / RFU, PTTG1IP / Fold change vs veh, PTTG1IP / RFU, CAPN2 / Fold change vs veh, CAPN2 / RFU, MED14 / Fold change vs veh, MED14 / RFU, SNORA58 / Fold change vs veh, SNORA58 / RFU, C1orf63 / Fold change vs veh, C1orf63 / RFU, LRRFIP1 / Fold change vs veh, LRRFIP1 / RFU, NDUFAF7 / Fold change vs veh, NDUFAF7 / RFU, SLC12A2 / Fold change vs veh, SLC12A2 / RFU, IBTK / Fold change vs veh, IBTK / RFU, ESF1 / Fold change vs veh, ESF1 / Fold change vs veh, TMEM50B / RFU, TAOK1 / Fold change vs veh, TAOK1 / RFU, ACBD3 / Fold change vs veh, ACBD3 / RFU, TMA16 / Fold change vs veh, TMA16 / RFU, RWDD3 / Fold change vs veh, RWDD3 / RFU, BCAT1 / Fold change vs veh, BCAT1 / RFU, EDEM3 / Fold change vs veh, EDEM3 / RFU, TMEM33 / Fold change vs veh, TMEM33 / RFU, WDR75 / Fold change vs veh, WDR75 / RFU, AHCTF1 / Fold change vs veh, AHCTF1 / RFU, TFRC / Fold change vs veh, TFRC / RFU, ZDHHC17 / Fold change vs veh, ZDHHC17 / RFU, NOM1 / Fold change vs veh, NOM1 / RFU, ARL8B / Fold change vs veh, ARL8B / RFU, ZBTB11 / Fold change vs veh, ZBTB11 / RFU, TAMM41 / Fold change vs veh, TAMM41 / RFU, KIAA1704 /// LOC100996395 / Fold change vs veh, KIAA1704 /// LOC100996395 / RFU, ING1 / Fold change vs veh, ING1 / RFU, TRMT61B / Fold change vs veh, TRMT61B / RFU, FUBP3 / Fold change vs veh, FUBP3 / RFU, TP53 / Fold change vs veh, TP53 / RFU, TNKS2 / Fold change vs veh, TNKS2 / RFU, ZFP14 / Fold change vs veh, ZFP14 / RFU, ACTR2 / Fold change vs veh, ACTR2 / RFU, PPP3R1 / Fold change vs veh, PPP3R1 / RFU, PIK3R1 / Fold change vs veh, PIK3R1 / RFU, HNRNPA1 / Fold change vs veh, HNRNPA1 / RFU, RNF170 / Fold change vs veh, RNF170 / RFU, ZNF28 / Fold change vs veh, ZNF28 / RFU, RNGTT / Fold change vs veh, RNGTT / RFU, OGT / Fold change vs veh, OGT / RFU, BRD1 / Fold change vs veh, BRD1 / RFU, MARS / Fold change vs veh, MARS / RFU, ZNF655 / Fold change vs veh, ZNF655 / RFU, FAHD1 / Fold change vs veh, FAHD1 / RFU, BDP1 / Fold change vs veh, BDP1 / RFU, LRRCC1 / Fold change vs veh, LRRCC1 / RFU, ARID1A / Fold change vs veh, ARID1A / RFU, ZNF146 / Fold change vs veh, ZNF146 / RFU, ZNF330 / Fold change vs veh, ZNF330 / RFU, GPN3 / Fold change vs veh, GPN3 / RFU, C9orf123 / Fold change vs veh, C9orf123 / RFU, N4BP2L2 / Fold change vs veh, N4BP2L2 / RFU, ARFIP1 / Fold change vs veh, ARFIP1 / RFU, FAM179B / Fold change vs veh, FAM179B / RFU, BCL10 / Fold change vs veh, BCL10 / RFU, UHRF1BP1L / Fold change vs veh, UHRF1BP1L / RFU, BET1 / Fold change vs veh, BET1 / RFU, CNOT2 / Fold change vs veh, CNOT2 / RFU, ZNF268 / Fold change vs veh, ZNF268 / Fold change vs veh, ZNF507 / RFU, DGCR2 / Fold change vs veh, DGCR2 / RFU, WDSUB1 / Fold change vs veh, WDSUB1 / Fold change vs veh, HSP90B1 /// MIR3652 / RFU, ADSS / Fold change vs veh, ADSS / RFU, GK / Fold change vs veh, GK / RFU, ZNF148 / Fold change vs veh, ZNF148 / RFU, TAF9 / Fold change vs veh, TAF9 / RFU, SLC1A5 / Fold change vs veh, SLC1A5 / RFU, SLMO2 / Fold change vs veh, SLMO2 / RFU, ABCC4 / Fold change vs veh, ABCC4 / RFU, LOC101060439 /// RAP1B / Fold change vs veh, LOC101060439 /// RAP1B / RFU, RFX7 / Fold change vs veh, RFX7 / RFU, GTPBP10 / Fold change vs veh, GTPBP10 / RFU, CNEP1R1 / Fold change vs veh, CNEP1R1 / RFU, BIVM-ERCC5 /// ERCC5 / Fold change vs veh, BIVM-ERCC5 /// ERCC5 / RFU, ILF3 / Fold change vs veh, ILF3 / RFU 11762660_at / Fold change /veh 11762660_at / RFU VCAN (11757783_s_at) / Fold change /veh VCAN (11757783_s_at) / RFU DDX43 (11728927_at) / Fold change /veh DDX43 (11728927_at) / RFU KRT8 (11758188_x_at) / Fold change /veh KRT8 (11758188_x_at) / RFU NKD1 (11759106_at) / Fold change /veh NKD1 (11759106_at) / RFU SRD5A1 (11742802_a_at) / Fold change /veh SRD5A1 (11742802_a_at) / RFU TPSAB1 /// TPSB2 (11721975_s_at) / Fold change /veh TPSAB1 /// TPSB2 (11721975_s_at) / RFU GSTM3 (11746129_a_at) / Fold change /veh GSTM3 (11746129_a_at) / RFU IL23R (11737362_x_at) / Fold change /veh IL23R (11737362_x_at) / RFU TMEM51 (11727254_a_at) / Fold change /veh TMEM51 (11727254_a_at) / RFU PIWIL2 (11732686_x_at) / Fold change /veh PIWIL2 (11732686_x_at) / RFU ORM1 (11744905_x_at) / Fold change /veh ORM1 (11744905_x_at) / RFU CCDC152 (11743942_at) / Fold change /veh CCDC152 (11743942_at) / RFU ECM1 (11717891_a_at) / Fold change /veh ECM1 (11717891_a_at) / RFU IL23R (11748794_a_at) / Fold change /veh IL23R (11748794_a_at) / RFU TNFAIP8L3 (11732012_x_at) / Fold change /veh TNFAIP8L3 (11732012_x_at) / RFU MBOAT4 (11741988_at) / Fold change /veh MBOAT4 (11741988_at) / RFU 11764193_at / Fold change /veh 11764193_at / RFU TMEM53 (11763286_at) / Fold change /veh TMEM53 (11763286_at) / RFU MAGEB2 (11727129_at) / Fold change /veh MAGEB2 (11727129_at) / RFU TMEM200A (11744735_a_at) / Fold change /veh TMEM200A (11744735_a_at) / RFU CCDC152 (11751479_a_at) / Fold change /veh CCDC152 (11751479_a_at) / RFU FAM211A (11726209_a_at) / Fold change /veh FAM211A (11726209_a_at) / RFU RGS16 (11746705_a_at) / Fold change /veh RGS16 (11746705_a_at) / RFU VCAN (11755009_s_at) / Fold change /veh VCAN (11755009_s_at) / RFU RHOB (11743442_s_at) / Fold change /veh RHOB (11743442_s_at) / RFU RGS16 (11720943_a_at) / Fold change /veh RGS16 (11720943_a_at) / RFU RGS16 (11720944_at) / Fold change /veh RGS16 (11720944_at) / RFU, VPS4B / Fold change vs veh, VPS4B / RFU, CREB1 / Fold change vs veh, CREB1 / RFU, DNAJC13 / Fold change vs veh, DNAJC13 / RFU, GNAQ / Fold change vs veh, GNAQ / RFU, CDK5R1 / Fold change vs veh, CDK5R1 / RFU, ZRANB3 / Fold change vs veh, ZRANB3 / RFU, CUL4A / Fold change vs veh, CUL4A / RFU, CCNY / Fold change vs veh, CCNY / RFU, UFL1 / Fold change vs veh, UFL1 / RFU, COG3 / Fold change vs veh, COG3 / RFU, DIAPH2 / Fold change vs veh, DIAPH2 / RFU, SKA2 / Fold change vs veh, SKA2 / RFU, AFF3 / Fold change vs veh, AFF3 / RFU, LMF1 / Fold change vs veh, LMF1 / RFU, IPO11 / Fold change vs veh, IPO11 / RFU, DFFB / Fold change vs veh, DFFB / RFU, FOXP1 / Fold change vs veh, FOXP1 / RFU, CARD8 / Fold change vs veh, CARD8 / RFU, STRN3 / Fold change vs veh, STRN3 / RFU, ADK / Fold change vs veh, ADK / RFU, RASSF2 / Fold change vs veh, RASSF2 / RFU, WIPF1 / Fold change vs veh, WIPF1 / RFU, LARP1B / Fold change vs veh, LARP1B / RFU, RASA1 / Fold change vs veh, RASA1 / RFU, RB1 / Fold change vs veh, RB1 / RFU, PPFIA1 / Fold change vs veh, PPFIA1 / RFU, MAT2A / Fold change vs veh, MAT2A / RFU, CCT5 / Fold change vs veh, CCT5 / RFU, WDR92 / Fold change vs veh, WDR92 / RFU, CUX1 / Fold change vs veh, CUX1 / RFU, TTC7A / Fold change vs veh, TTC7A / RFU, TMEM135 / Fold change vs veh, TMEM135 / RFU, DEPTOR / Fold change vs veh, DEPTOR / RFU, CPM / Fold change vs veh, CPM / RFU, DNAJB6 / Fold change vs veh, DNAJB6 / RFU, CACNA2D3 / Fold change vs veh, CACNA2D3 / RFU, DTX4 / Fold change vs veh, DTX4 / RFU, TFCP2 / Fold change vs veh, TFCP2 / RFU, GMCL1 /// GMCL1P1 / Fold change vs veh, GMCL1 /// GMCL1P1 / RFU, AEBP2 / Fold change vs veh, AEBP2 / RFU, SNHG1 /// SNORD22 /// SNORD25 /// SNORD26 /// SNORD27 /// SNORD28 /// SNORD29 /// SNORD31 / Fold change vs veh, SNHG1 /// SNORD22 /// SNORD25 /// SNORD26 /// SNORD27 /// SNORD28 /// SNORD29 /// SNORD31 / Fold change (Aza/veh), C12orf56 (ProbeSet 11735607_a_at) / Fold change (ACY-1035/veh), C12orf56 (ProbeSet 11735607_a_at) / Fold change (Aza/veh), FGFR1OP (ProbeSet 11751329_s_at) / Fold change (ACY-1035/veh), FGFR1OP (ProbeSet 11751329_s_at) / Fold change (Aza/veh), VPS36 (ProbeSet 11739960_a_at) / Fold change (ACY-1035/veh), VPS36 (ProbeSet 11739960_a_at) / RFU SYPL1 (11715823_x_at) / Fold change /veh SYPL1 (11715823_x_at) / RFU IGFBP7 (11715501_s_at) / Fold change /veh IGFBP7 (11715501_s_at) / RFU REEP3 (11722064_at) / Fold change /veh REEP3 (11722064_at) / RFU IGLL1 (11728026_x_at) / Fold change /veh IGLL1 (11728026_x_at): dose or concentration left out as unconfirmed
Details: MV-4-11 cells, 48 hours

Nc1ccc(-c2cccs2)cc1NC(=O)c1ccc2c(c1)cc(C1CC1)n2CCN1CCOCC1 [ACY-1035]
Fold change /veh OASL (11726364_x_at): 1.03
